Data published in patent publication US5607850A, “Enzyme from microbial source: phthalyl amidase” (Eli Lilly and Company, priority 1995, dated 1997).

Target: phthalyl amidase (Xanthobacter agilis, UniProt P0C2Y0)
Test: Substrate specificity of phthalyl amidase (Tables 9-11)
Assay type: biochemical
Conditions: for Relative Activity: 30° C., pH 8.0
Method: the activity of phthalyl amidase against 25 compounds was determined. The compounds were divided into beta-lactams (Table 9), phthalyl amides (Table 10), and aromatic ring substituted amides (Table 11). Each reaction mixture (1 ml total volume) contained 2.5 μmol of compound and 0.3 units of enzyme (based on the chromogenic substrate) of the preparative scale purified enzyme, in 50 mM phosphate buffer, pH 8.0. The reactions were conducted at 30° C. Samples of the reaction mixture were taken at various times, and methanol (equal value) was added to stop the reaction. The samples were examined by HPLC to determine the extent of substrate hydrolysis. The amount of compound hydrolyzed was calculated from a standard curve of the test compound. All substrates were stable in buffer at 30° C. and pH 8.0 in the absence of enzyme for 24 hours.

[1] = Table 11, aromatic ring substituted amides

phthalyl amidase, sequence (P0C2Y0 2-453): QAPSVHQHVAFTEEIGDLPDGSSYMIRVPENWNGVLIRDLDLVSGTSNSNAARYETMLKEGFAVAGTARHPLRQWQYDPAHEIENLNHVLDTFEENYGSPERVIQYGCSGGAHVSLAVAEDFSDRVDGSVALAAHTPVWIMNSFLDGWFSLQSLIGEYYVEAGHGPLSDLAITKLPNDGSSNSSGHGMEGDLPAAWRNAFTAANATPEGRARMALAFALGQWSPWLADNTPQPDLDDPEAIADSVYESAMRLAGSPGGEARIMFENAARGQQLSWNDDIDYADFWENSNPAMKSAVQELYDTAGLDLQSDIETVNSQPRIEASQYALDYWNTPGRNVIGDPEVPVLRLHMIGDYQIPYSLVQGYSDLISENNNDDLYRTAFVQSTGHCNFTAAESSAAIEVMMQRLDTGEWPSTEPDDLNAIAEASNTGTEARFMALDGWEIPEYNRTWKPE

SMILES | Relative Activity (Table 10, phthalyl amides) | Relative Activity [1] | further results
O=C(O)CN1C(=O)C(NC(=O)c2ccccc2)C1CCc1ccco1 (stereo not drawn) [VI] | – | – | Relative Activity (Table 9, beta-lactams): 0
O=C(O)c1ccccc1C(=O)Nc1ccc([N+](=O)[O-])cc1 [VIII] | 544.6 | – | –
O=C(O)CN1C(=O)C(NC(=O)Cc2ccccc2)C1CCc1ccco1 (stereo not drawn) [V] | – | – | Relative Activity (Table 9, beta-lactams): 0
CC(C)CC(NC(=O)c1ccccc1C(=O)O)C(=O)O (racemic) [XVI] | 90.2 | – | –
CCCCCCC(C(=O)O)n1cnc(NC(=O)c2ccccc2O)c1 (stereo not drawn) [XXV] | – | 0 | –
CC(C)NC(=O)c1ccccc1C(=O)O [XII] | 9.7 | – | –
O=C(O)C1=C(Cl)CCC2C(NC(=O)c3ccccc3C(=O)O)C(=O)N12 (stereo not drawn) [VII] | 100.0 | – | –
CCCCCCC(C(=O)O)n1cnc(NC(=O)c2cccc(C(=O)O)c2)c1 (stereo not drawn) [XXIV] | – | 0 | acceptance as substrate of the enzyme: completely eliminates hydrolytic activity
CCCCCCC(C(=O)O)n1cnc(NC(=O)c2ccccc2-c2nn[nH]n2)c1 (stereo not drawn) [XXII] | – | 0.2 | acceptance as substrate of the enzyme: Low levels of hydrolysis
CCCCCCC(C(=O)O)n1cnc(NC(=O)c2cc(O)cc(O)c2)c1 (stereo not drawn) [XXVII] | – | 0 | –
O=C(O)c1ccccc1C(=O)NCc1ccccc1 | 40.2 | – | –
CCCCCCC(C(=O)O)n1cnc(NC(=O)c2ncccc2C(=O)O)c1 (stereo not drawn) [Compound XX] | – | 85.9 | acceptance as substrate of the enzyme: acceptable
CCCCCCC(C(=O)O)n1cnc(NC(=O)c2cccc(O)c2C(=O)O)c1 (stereo not drawn) [XXI] | – | 1.3 | acceptance as substrate of the enzyme: acceptable
COC(=O)[C@H](Cc1ccccc1)NC(=O)[C@H](CC(=O)O)NC(=O)c1ccccc1C(=O)O [XIV] | 118.5 | – | –
CCCCCCC(C(=O)O)n1cnc(NC(=O)c2ccccc2)c1 (stereo not drawn) [XXVIII] | – | 0 | –
CSCCC(NC(=O)c1ccccc1C(=O)O)C(=O)O (racemic) [XV] | 220.1 | – | –
O=C(O)CN1C(=O)C(NC(=O)COc2ccccc2)C1CCc1ccco1 (stereo not drawn) [IV] | – | – | Relative Activity (Table 9, beta-lactams): 0
CCCCCCC(C(=O)O)n1cnc(NC(=O)c2cccc(O)c2)c1 (stereo not drawn) [XXVI] | – | 0 | –
CCCCCCC(C(=O)O)n1cnc(NC(=O)c2ccccc2C(=O)O)c1 (stereo not drawn) [XIII] | 1027.2 | – | acceptance as substrate of the enzyme: most active compound found
O=C(O)CN1C(=O)C(NC(=O)c2ccccc2C(=O)O)C1CCc1ccco1 (stereo not drawn) [drawing 6] | – | – | Relative Activity (Table 9, beta-lactams): 47.9
CCCCCCC(C(=O)O)n1cnc(NC(=O)c2ccc(C(=O)O)cc2)c1 (stereo not drawn) [XXIII] | – | 0 | acceptance as substrate of the enzyme: completely eliminates hydrolytic activity
